1 compound from patent US20250073234A1, “COMBINATION THERAPIES INCLUDING PARP1 INHIBITORS” (Cornell University, priority 2022, published 2025) can be followed below.

One experiment deals with WPMY-1 fibroblasts. The experiment in a line: GSEA of RNAseq data from WPMY-1 fibroblasts. To be noted: for GSEA inflammatory signaling pathways (TNFα, IL-6, JAK-STAT): Olaparib 20 μM vs DMSO. Type of experiment: cell-based, human. As to the method: Total RNA was extracted using Quick-RNA MiniPrep kit (Zymo Research). Libraries were prepared from 200 ng of total RNA using the QuantSeq 3′ mRNA-Seq Library Prep Kit FWD for Illumina from Lexogen, and optional UMIs (Vienna, Austria). Barcoded libraries were pooled, and single end sequenced (1×75) on the Illumina NextSeq 500 using the High output V2.5 kit (Illumina Inc., San Diego CA).
Peaks were annotated with ChipSeeker R package. […].

The subject of a further experiment is PC3 cells. The experiment is described as follows: Trans-well migration and invasion of PC3 cells co-cultured with pre-treated WPMY-1 cells. The experiment is classed as cell-based, human. The settings on record: co-culture with Olaparib-pretreated WPMY-1, 20 h, basal and ADT. As to the method:
For co-culture migration and invasion assays, 8×10^4 WPMY-1 cells were plated onto the lower chamber of a 24 well plate in DMEN containing 10% FBS (basal conditions) or 10% charcoal stripped FBS (ADT conditions) and vehicle (DMSO) or Olaparib 10 μM or Olaparib 10 μM+PEGPH20 2.5 μg/ml for 48 hours. 5×10^4 PC3 were seeded in a transwell chamber (Corning Biocoat control inserts) or in a transwell invasion chamber (Corning BioCoat Matrigel Invasion Chambers), both with 8 μm membrane. PC3 were allowed to migrate or invade for 20 hours at 37° C., 5% CO2. Cells were fixed in cold methanol and stained with crystal violet.

In experiment [1] the test system is RM1-BoMe3 cells on femur pieces. The experiment is described as follows: Bone-in-culture array (BICA) with RM1-BoMe3 cells. The experiment is classed as cell-based, mouse. The settings on record: bone pre-treated with Olaparib 20 μM 48 h, ADT conditions. As to the method:
8-week-old C57B16 male mice were euthanized, and lower limb bone were collected. Femur epiphyses were dissected and fragmented in 4 pieces by sterilized micro dissecting scissors. Bone pieces were aligned into low-attachment 96-well plates pre-loaded with 200 μL DMEM/F12 supplemented with 5% charcoal striped FBS for ADT conditions. Bone pieces were treated with DMSO or Olaparib 20 μM for 48 h and then 5000 RM1-BoMe3-RFP-Luc cells were seed on top of the bone pieces. After 48 hours, pictures were taken using EVOS M5000 Imaging System and RFP^+ positive areas were measured using Fiji.

Another experiment has as its system RM1-BoMe3 metastases. The experiment is described as follows: Caudal artery injection RM1-BoMe3 metastasis model. Type of experiment: in vivo, mouse. To be noted: Olaparib 40 mg/kg i.p., 3 weeks. The procedure: Tissues from indicated mice were isolated, fixed in zinc buffered formalin overnight at 4° C., dehydrated, and embedded in paraffin. Sections (5 μm) were stained with hematoxylin and eosin (H&E). For immunohistochemistry, sections were deparaffinized, rehydrated, and then treated for antigen retrieval. After blocking in Protein Block Serum-Free solutions (DAKO), tissues were incubated with primary antibody overnight at 4° C. followed by incubation with biotinylated secondary antibody. Endogenous peroxidase was quenched in 3% H2O2 in water for 10 minutes at room temperature. Antibodies were visualized with avidin-biotin complex (Vectastain Elite; Vector Laboratories) using diaminobenzidine as the chromogen. Stained sections were analyzed with a Zeiss light microscope supplemented with Zen 3.3 Bule edition software.
For the metastasis model, caudal artery injection was performed with 500000 RM1-BoMe3-RFP-Luc prostate cancer epithelial cells in 150 μl of PBS n=10 in 8-week-old C57B16 male mice. After 1-week luciferase was visualized using IVIS to detect signal in the lower limbs and in less frequently in visceral organs, mice with signal were randomly distributed to receive vehicle, n=5, or Olaparib n=5 (40 mg/kg/, 5 days each, i.p.). After 3 weeks, mice were euthanized and ex-vivo IVIS was performed in lower limbs, vertebrae, and visceral organs to detect metastasis sites. Tissues were collected and analyzed histologically.

Structures are written as SMILES.

`O=C(c1cc(Cc2n[nH]c(=O)c3ccccc23)ccc1F)N1CCN(C(=O)C2CC2)CC1` [Olaparib]: the “GSEA inflammatory signaling pathways (TNFα, IL-6, JAK-STAT)” value with WPMY-1 fibroblasts is recorded as “increased inflammatory related signatures”; in the experiment on WPMY-1 fibroblasts (listed as Ola) it was “significant enrichment was found in inflammatory signaling pathways”. The “GSEA signatures of extracellular matrix remodeling / CAF activation” value in the experiment with WPMY-1 fibroblasts (basal or ADT conditions) is recorded as “enrichment of signatures corresponding to extracellular matrix remodeling”. Moreover, the “migration and invasion of PC3 cells” value in the experiment with PC3 cells is “increased migration and invasion of PCa cells”. In addition, the figures for the “seeding of cancer cells onto the bone (RFP+ area)” value in experiment [1] and in experiment [1] (listed as Ola) were “increased tumor homing of RM1-BoMe3” and “significantly increased the seeding of cancer cells onto the bone”, respectively. The “HA deposition in liver metastasis (IHC)” value is “increased HA deposition in Olaparib-treated liver metastasis” in the experiment on RM1-BoMe3 metastases and “deposition of HA was observed” with RM1-BoMe3 metastases (listed as Ola). The “TGFβ signaling in bone metastasis (nuclear pSMAD2)” value is given as “increased pSMAD2 staining in bone metastasis” in the experiment with RM1-BoMe3 metastases and “increased activation of TGFβ signaling” with RM1-BoMe3 metastases (listed as Ola).
